The record followed here is patent US10745382B2 (BRISTOL-MYERS SQUIBB COMPANY, priority 2015, dated 2020).

SMILES strings stand for the structures. Like-named read-outs stand apart in the source and are kept apart here.

As a reminder, the IC50 is the concentration that inhibits the measured activity by half.

The target in this test is T1, PD-1/PD-L1 (Homo sapiens, UniProt Q9NZQ7).
T1 construct: made in house; host or cells: HEK293T
The test is described as follows: PD-1/PD-L1 Homogenous Time-Resolved Fluorescence (HTRF) binding assay. The note with it: PD-L1-His 10 nM, PD-1-Ig 20 nM, read-out: Range or IC50. The essentials: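 Binding measured in dPBS with 0.1% BSA and 0.05% Tween-20, detected by HTRF with europium cryptate anti-Ig (1 nM final) and APC anti-His (20 nM final) added over the binding reaction. Counter-assays used human PD-1-Ig/PD-L2-His (20 and 5 nM) and CD80-His/PD-L1-Ig (100 and 10 nM).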
(In general: Time-resolved FRET reads energy transfer from a long-lived donor to a nearby acceptor.)

T1 sequence (Q9NZQ7 with tags, fused parts or gaps): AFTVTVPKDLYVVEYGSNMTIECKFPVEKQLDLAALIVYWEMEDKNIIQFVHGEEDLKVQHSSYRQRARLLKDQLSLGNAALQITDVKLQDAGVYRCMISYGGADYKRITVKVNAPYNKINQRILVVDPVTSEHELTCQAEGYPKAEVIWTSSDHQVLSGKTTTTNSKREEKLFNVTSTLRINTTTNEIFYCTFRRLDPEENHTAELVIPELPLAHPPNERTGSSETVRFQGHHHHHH

With `Cc1c(COc2cc(OCc3cncc(C#N)c3)c(CN[C@@](C)(CO)C(=O)O)cc2Cl)cccc1-c1cccc(OCCCN2CCC(O)(CC(=O)O)C2)c1C` (stereo partly drawn) [Example 1517, (2S)-2-((4-((3′-(3-(3-(carboxymethyl)-3-hydroxypyrrolidin-1-yl)propoxy)-2,2′-dimethyl-[1,1′-biphenyl]-3-yl)methoxy)-5-chloro-2-((5-cyanopyridin-3-yl)methoxy)benzyl)amino)-3-hydroxy-2-methylpropanoic acid], under “value given as range class”, the IC50 fell in the range of 0.21 to 10 nM.
The same measure, in the same setting: under `Cc1c(COc2cc(OCc3cncc(C(N)=O)c3)c(CN[C@@](C)(CO)C(=O)O)cc2Cl)cccc1-c1cccc(OCCCN2CCC(O)(CC(=O)O)C2)c1Cl` (stereo partly drawn) [Example 1518, (2S)-2-((2-((5-carbamoylpyridin-3-yl)methoxy)-4-((3′-(3-(3-(carboxymethyl)-3-hydroxypyrrolidin-1-yl)propoxy)-2′-chloro-2-methyl-[1,1′-biphenyl]-3-yl)methoxy)-5-chlorobenzyl)amino)-3-hydroxy-2-methylpropanoic acid] stands 10 to 100 nM.
Same read-out and setting: under `Cc1c(COc2cc(OCc3cncc(C#N)c3)c(CN3CCCC[C@H]3C(=O)O)cc2Cl)cccc1-c1cccc(OCCCN2CC[C@@H](O)C2)c1F` [Example 1520, (S)-1-(5-chloro-2-((5-cyanopyridin-3-yl)methoxy)-4-((2′-fluoro-3′-(3-((R)-3-hydroxypyrrolidin-1-yl)propoxy)-2-methyl-[1,1′-biphenyl]-3-yl)methoxy)benzyl)piperidine-2-carboxylic acid] stands 0.21 to 10 nM; under `Cc1c(COc2cc(OCc3cncc(C#N)c3)c(CN[C@@](C)(CO)C(=O)O)cc2Cl)cccc1-c1cccc(O[C@@H](C)CCN2CC[C@@H](O)C2)c1Cl` [Example 1521, (S)-2-((5-chloro-4-((2′-chloro-3′-(((S)-4-((R)-3-hydroxypyrrolidin-1-yl)butan-2-yl)oxy)-2-methyl-[1,1′-biphenyl]-3-yl)methoxy)-2-((5-cyanopyridin-3-yl)methoxy)benzyl)amino)-3-hydroxy-2-methylpropanoic acid], 0.21 to 10 nM; under `Cc1c(COc2cc(OCc3cncc(C#N)c3)c(CN3CCCC[C@H]3C(=O)O)cc2Cl)cccc1-c1cccc(O[C@@H](C)CCN2CC[C@@H](O)C2)c1Cl` [Example 1522, (S)-1-(5-chloro-4-((2′-chloro-3′-(((S)-4-((R)-3-hydroxypyrrolidin-1-yl)butan-2-yl)oxy)-2-methyl-[1,1′-biphenyl]-3-yl)methoxy)-2-((5-cyanopyridin-3-yl)methoxy)benzyl)piperidine-2-carboxylic acid], 0.21 to 10 nM.
Still for that read-out and setting: with `Cc1c(COc2cc(OCc3cncc(C#N)c3)c(CN3CCCC[C@H]3C(=O)O)cc2Cl)cccc1-c1cccc(O[C@H](C)CCN2CC[C@@H](O)C2)c1Cl` [Example 1523] the figure was 0.21 to 10 nM.
With `Cc1c(COc2cc(OCc3cncc(C#N)c3)c(CN[C@@](C)(CO)C(=O)O)cc2Cl)cccc1-c1cccc(O[C@H](C)CCN2CC[C@@H](O)C2)c1Cl` [Example 1524], the IC50 (value given as range class) was 0.21 to 10 nM.
On the same count and under the same terms, under `Cc1c(COc2cc(OCc3cncc(C#N)c3)c(CN[C@@](C)(CO)C(=O)O)cc2Cl)cccc1-c1cccc(O[C@H](C)CCN2CC[C@@H](O)C2)c1C` [Example 1525, (S)-2-((5-chloro-2-((5-cyanopyridin-3-yl)methoxy)-4-((3′-(((R)-4-((R)-3-hydroxypyrrolidin-1-yl)butan-2-yl)oxy)-2,2′-dimethyl-[1,1′-biphenyl]-3-yl)methoxy)benzyl)amino)-3-hydroxy-2-methylpropanoic acid] stands 0.21 to 10 nM; under `Cc1c(COc2cc(OCc3cncc(C#N)c3)c(CN3CCCC[C@H]3C(=O)O)cc2Cl)cccc1-c1cccc(O[C@H](C)CCN2CC[C@@H](O)C2)c1C` [Example 1526, (S)-1-(5-chloro-2-((5-cyanopyridin-3-yl)methoxy)-4-((3′-(((R)-4-((R)-3-hydroxypyrrolidin-1-yl)butan-2-yl)oxy)-2,2′-dimethyl-[1,1′-biphenyl]-3-yl)methoxy)benzyl)piperidine-2-carboxylic acid], 0.21 to 10 nM; under `Cc1ccc(OCCCN2CC[C@@H](O)C2)cc1-c1cccc(COc2cc(OCc3cncc(C#N)c3)c(CN3CCCC[C@H]3C(=O)O)cc2Cl)c1C` [Example 1528, (S)-1-(5-chloro-2-((5-cyanopyridin-3-yl)methoxy)-4-((5′-(3-((R)-3-hydroxypyrrolidin-1-yl)propoxy)-2,2′-dimethyl-[1,1′-biphenyl]-3-yl)methoxy)benzyl)piperidine-2-carboxylic acid], 0.21 to 10 nM.
On to `Cc1c(COc2cc(OCCCN3CC[C@@H](O)C3)c(CN3CCCC[C@H]3C(=O)O)cc2Cl)cccc1-c1cccc(OCCCN2CC[C@@H](O)C2)c1C` [Example 1529, (S)-1-(5-chloro-2-(3-((R)-3-hydroxypyrrolidin-1-yl)propoxy)-4-((3′-(3-((R)-3-hydroxypyrrolidin-1-yl)propoxy)-2,2′-dimethyl-[1,1′-biphenyl]-3-yl)methoxy)benzyl)piperidine-2-carboxylic Acid], for which the IC50 (numeric IC50) came to 2 nM.
As to `Cc1c(COc2cc(OCCCN3CC[C@@H](O)C3)c(CN[C@@H](CO)C(=O)O)cc2Cl)cccc1-c1cccc(OCCCN2CC[C@@H](O)C2)c1C` [Example 1530, (5-chloro-2-(3-((R)-3-hydroxypyrrolidin-1-yl)propoxy)-4-((3′-(3-((R)-3-hydroxypyrrolidin-1-yl)propoxy)-2,2′-dimethyl-[1,1′-biphenyl]-3-yl)methoxy)benzyl)-L-serine], where the note is “value given as range class”, the IC50 lay within 0.21 to 10 nM.
On the same count and under the same terms, with `Cc1c(COc2cc(OCCCN3CC[C@@H](O)C3)c(CN[C@](C)(CO)C(=O)O)cc2Cl)cccc1-c1cccc(OCCCN2CC[C@@H](O)C2)c1C` [Example 1531, (R)-2-((5-chloro-2-(3-((R)-3-hydroxypyrrolidin-1-yl)propoxy)-4-((3′-(3-((R)-3-hydroxypyrrolidin-1-yl)propoxy)-2,2′-dimethyl-[1,1′-biphenyl]-3-yl)methoxy)benzyl)amino)-3-hydroxy-2-methylpropanoic Acid] the figure was 0.21 to 10 nM; with `Cc1c(COc2cc(OCc3cncc(S(C)(=O)=O)c3)c(CNC(C)(CO)CO)cc2Cl)cccc1-c1cccc(OCCCN2CC[C@@H](O)C2)c1Cl` [Example 1532, (R)-2-((5-chloro-4-((2′-chloro-3′-(3-(3-hydroxypyrrolidin-1-yl)propoxy)-2-methyl-[1,1′-biphenyl]-3-yl)methoxy)-2-((5-(methylsulfonyl)pyridin-3-yl)methoxy)benzyl)amino)-2-methylpropane-1,3-diol], 0.21 to 10 nM; with `Cc1c(COc2cc(OCc3cncc(S(C)(=O)=O)c3)c(CNC(C)(CO)CO)cc2Cl)cccc1-c1cccc(OCCCN2CC[C@@H](O)C2)c1C` [Example 1533, (R)-2-((5-chloro-4-((3′-(3-(3-hydroxypyrrolidin-1-yl)propoxy)-2,2′-dimethyl-[1,1′-biphenyl]-3-yl)methoxy)-2-((5-(methylsulfonyl)pyridin-3-yl)methoxy)benzyl)amino)-2-methylpropane-1,3-diol], 0.21 to 10 nM.
The same measure, in the same setting: with `Cc1c(COc2cc(OCc3cncc(C#N)c3)c(CN3CCC[C@@H]3CO)cc2Cl)cccc1-c1cccc(OCCCN2CCC[C@@H]2CO)c1F` [Example 1534, 5-((4-chloro-5-((2′-fluoro-3′-(3-((R)-2-(hydroxymethyl)pyrrolidin-1-yl)propoxy)-2-methyl-[1,1′-biphenyl]-3-yl)methoxy)-2-(((R)-2-(hydroxymethyl)pyrrolidin-1-yl)methyl)phenoxy)methyl)nicotinonitrile] the figure was 0.21 to 10 nM.
The same measure, in the same setting: under `Cc1c(COc2cc(OCc3cncc(C#N)c3)c(CN3CC[C@@H](O)C3)cc2Cl)cccc1-c1cccc(OCCCN2CC[C@@H](O)C2)c1Cl` [Example 2001, 5-((4-chloro-5-((2′-chloro-3′-(3-((R)-3-hydroxypyrrolidin-1-yl)propoxy)-2-methyl-[1,1′-biphenyl]-3-yl)methoxy)-2-(((R)-3-hydroxypyrrolidin-1-yl)methyl)phenoxy)methyl)nicotinonitrile] stands 0.21 to 10 nM; under `Cc1c(COc2cc(OCc3cncc(C#N)c3)c(CO)cc2Cl)cccc1-c1cccc(OCCCN2CC[C@@H](O)C2)c1Cl` [Example 2002, (R)-5-((4-chloro-5-((2′-chloro-3′-(3-(3-hydroxypyrrolidin-1-yl)propoxy)-2-methyl-[1,1′-biphenyl]-3-yl)methoxy)-2-(hydroxymethyl)phenoxy)methyl)nicotinonitrile], 0.21 to 10 nM.
Turning to `Cc1c(COc2cc(OCc3cncc(C#N)c3)c(CNC[C@H](O)CO)cc2Cl)cccc1-c1cccc(OCCCNC[C@H](O)CO)c1Cl` [Example 2003, 5-((4-chloro-5-((2′-chloro-3′-(3-(((S)-2,3-dihydroxypropyl)amino)propoxy)-2-methyl-[1,1′-biphenyl]-3-yl)methoxy)-2-((((S)-2,3-dihydroxypropyl)amino)methyl)phenoxy)methyl)nicotinonitrile], the IC50 (value given as range class) was in the range of 0.21 to 10 nM.
Same read-out and setting: with `Cc1c(COc2cc(OCc3cncc(C#N)c3)c(CN[C@@H](CO)C(=O)O)cc2Cl)cccc1-c1cccc(OCCCNC[C@H](O)CO)c1Cl` [Example 2004, (S)-2-((5-chloro-4-((2′-chloro-3′-(3-(((S)-2,3-dihydroxypropyl)amino)propoxy)-2-methyl-[1,1′-biphenyl]-3-yl)methoxy)-2-((5-cyanopyridin-3-yl)methoxy)benzyl)amino)-3-hydroxypropanoic Acid] the figure was 0.21 to 10 nM; with `Cc1c(COc2cc(OCc3cncc(C#N)c3)c(CO)cc2Cl)cccc1-c1cccc(OCCCNC[C@H](O)CO)c1Cl` [Example 2005, (S)-5-((4-chloro-5-((2′-chloro-3′-(3-((2,3-dihydroxypropyl)amino)propoxy)-2-methyl-[1,1′-biphenyl]-3-yl)methoxy)-2-(hydroxymethyl)phenoxy)methyl)nicotinonitrile], 0.21 to 10 nM.
